In patent publication US12275731B2, “Azaindole inhibitors of wild-type and mutant forms of LRRK2” (DANA-FARBER CANCER INSTITUTE, INC., priority 2018, dated 2025):

Assays:
Test in all cases: KinomeScan profiling
Type in all cases: binding
EPHA8 = target: T1, EPHA8 (Homo sapiens, UniProt P29322); details: EPHA8, 1 μM; read-out: % control
T1 sequence (P29322 28-1005): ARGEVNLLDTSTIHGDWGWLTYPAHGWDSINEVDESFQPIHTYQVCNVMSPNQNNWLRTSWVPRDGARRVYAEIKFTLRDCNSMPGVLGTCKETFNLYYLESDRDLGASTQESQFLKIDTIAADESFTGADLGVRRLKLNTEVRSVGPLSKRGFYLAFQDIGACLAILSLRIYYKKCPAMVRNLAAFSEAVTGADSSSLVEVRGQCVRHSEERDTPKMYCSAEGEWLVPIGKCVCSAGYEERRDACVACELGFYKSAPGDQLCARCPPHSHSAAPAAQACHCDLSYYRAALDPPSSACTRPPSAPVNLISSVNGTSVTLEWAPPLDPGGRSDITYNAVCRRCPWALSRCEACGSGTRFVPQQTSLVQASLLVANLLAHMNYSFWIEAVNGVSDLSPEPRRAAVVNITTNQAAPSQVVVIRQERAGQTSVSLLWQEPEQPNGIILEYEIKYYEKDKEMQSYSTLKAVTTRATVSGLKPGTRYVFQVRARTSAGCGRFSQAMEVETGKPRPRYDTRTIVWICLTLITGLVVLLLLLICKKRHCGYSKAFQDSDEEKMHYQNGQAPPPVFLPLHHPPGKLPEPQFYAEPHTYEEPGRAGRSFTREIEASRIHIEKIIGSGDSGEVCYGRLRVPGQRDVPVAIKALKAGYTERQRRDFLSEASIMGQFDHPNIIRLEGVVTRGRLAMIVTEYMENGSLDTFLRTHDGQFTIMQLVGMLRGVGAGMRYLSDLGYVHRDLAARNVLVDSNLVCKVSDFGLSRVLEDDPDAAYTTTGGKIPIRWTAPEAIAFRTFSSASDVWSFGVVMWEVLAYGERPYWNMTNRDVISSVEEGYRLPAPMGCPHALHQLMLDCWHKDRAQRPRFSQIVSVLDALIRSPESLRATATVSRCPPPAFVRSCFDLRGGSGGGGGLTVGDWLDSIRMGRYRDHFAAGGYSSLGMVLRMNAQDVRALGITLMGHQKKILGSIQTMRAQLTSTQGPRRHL
Summary of the method: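 The panel spans 468 kinases, and each inventive compound was applied at 1 μM from DMSO. Lower % control means stronger binding; the activity cut-off is set at less than 35%.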

HIPK4 = target: T2, HIPK4 (Homo sapiens, UniProt Q8NE63); details: HIPK4, 1 μM; read-out: % control
T2 sequence (Q8NE63 1-616): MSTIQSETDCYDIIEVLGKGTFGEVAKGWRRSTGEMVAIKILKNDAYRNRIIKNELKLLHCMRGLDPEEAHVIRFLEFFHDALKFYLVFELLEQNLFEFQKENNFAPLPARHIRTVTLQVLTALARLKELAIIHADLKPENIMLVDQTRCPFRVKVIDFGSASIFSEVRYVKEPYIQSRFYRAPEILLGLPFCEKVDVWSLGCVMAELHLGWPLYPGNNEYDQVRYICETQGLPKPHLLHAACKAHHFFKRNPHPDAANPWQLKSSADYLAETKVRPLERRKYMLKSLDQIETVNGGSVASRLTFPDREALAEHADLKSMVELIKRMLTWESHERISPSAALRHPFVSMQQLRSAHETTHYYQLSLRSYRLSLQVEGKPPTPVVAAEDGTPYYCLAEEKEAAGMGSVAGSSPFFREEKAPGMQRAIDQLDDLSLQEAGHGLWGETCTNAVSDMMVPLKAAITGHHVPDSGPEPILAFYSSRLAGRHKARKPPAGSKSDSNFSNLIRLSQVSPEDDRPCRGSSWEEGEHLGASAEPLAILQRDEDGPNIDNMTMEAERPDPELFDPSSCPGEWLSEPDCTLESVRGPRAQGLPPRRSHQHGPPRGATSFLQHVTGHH
Summary of the method: (§1)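 Test agents were profiled at a single concentration of 1 μM (DMSO vehicle) on a near-complete set of 468 kinases. Signal is reported relative to vehicle (100%) and a fully displacing control (0%).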

MAPKAPK2 = MAPKAPK2 (Homo sapiens, UniProt P49137); details: MAPKAPK2, 1 μM; read-out: % control
MAPKAPK2, sequence (P49137 whole entry): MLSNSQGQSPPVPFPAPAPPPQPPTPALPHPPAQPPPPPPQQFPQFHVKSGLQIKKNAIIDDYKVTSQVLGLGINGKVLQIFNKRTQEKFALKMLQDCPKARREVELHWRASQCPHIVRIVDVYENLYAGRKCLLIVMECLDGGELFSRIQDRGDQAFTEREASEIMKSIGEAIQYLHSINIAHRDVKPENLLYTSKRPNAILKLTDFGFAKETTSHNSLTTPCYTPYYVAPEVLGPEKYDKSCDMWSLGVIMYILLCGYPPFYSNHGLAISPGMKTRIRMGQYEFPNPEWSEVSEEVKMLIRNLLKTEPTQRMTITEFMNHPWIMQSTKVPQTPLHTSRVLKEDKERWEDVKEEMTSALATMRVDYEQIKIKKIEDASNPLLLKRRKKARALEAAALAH
Summary of the method: as §1

MYLK2 = MYLK2 (Homo sapiens, UniProt Q9H1R3); details: MYLK2, 1 μM; read-out: % control
MYLK2, sequence (Q9H1R3 whole entry): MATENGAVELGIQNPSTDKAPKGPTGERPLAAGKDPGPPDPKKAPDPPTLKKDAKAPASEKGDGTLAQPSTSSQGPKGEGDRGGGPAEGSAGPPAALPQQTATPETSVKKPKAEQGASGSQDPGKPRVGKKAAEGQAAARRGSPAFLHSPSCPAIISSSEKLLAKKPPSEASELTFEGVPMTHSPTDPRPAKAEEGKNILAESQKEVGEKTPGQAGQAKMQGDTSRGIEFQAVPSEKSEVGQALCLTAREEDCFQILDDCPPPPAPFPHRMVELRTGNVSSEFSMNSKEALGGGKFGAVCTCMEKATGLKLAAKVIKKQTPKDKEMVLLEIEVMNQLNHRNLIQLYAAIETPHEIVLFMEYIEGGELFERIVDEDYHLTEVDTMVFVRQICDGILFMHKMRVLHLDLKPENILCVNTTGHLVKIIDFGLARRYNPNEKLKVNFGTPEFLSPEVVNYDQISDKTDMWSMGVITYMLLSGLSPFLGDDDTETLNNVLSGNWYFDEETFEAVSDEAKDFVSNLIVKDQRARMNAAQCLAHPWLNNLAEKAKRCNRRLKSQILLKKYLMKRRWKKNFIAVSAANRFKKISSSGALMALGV
Summary of the method: as §1

SgK110 = target: T3, SgK110 (Homo sapiens, UniProt P0C264); details: SgK110, 1 μM; read-out: % control
T3 construct: purchased KinomeScan® (panel service)
T3 sequence (P0C264 1-359): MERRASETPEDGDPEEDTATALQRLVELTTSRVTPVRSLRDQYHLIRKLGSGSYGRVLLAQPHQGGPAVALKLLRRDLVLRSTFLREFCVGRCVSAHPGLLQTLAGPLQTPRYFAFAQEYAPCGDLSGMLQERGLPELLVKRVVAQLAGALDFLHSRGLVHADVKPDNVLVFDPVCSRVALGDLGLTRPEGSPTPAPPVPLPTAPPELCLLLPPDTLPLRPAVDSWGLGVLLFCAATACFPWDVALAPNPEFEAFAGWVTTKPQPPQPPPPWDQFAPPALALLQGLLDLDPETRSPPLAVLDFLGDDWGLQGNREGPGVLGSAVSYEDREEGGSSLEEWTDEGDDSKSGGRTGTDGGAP
Summary of the method: as §1

Structure (SMILES) | remaining binding at 1 µM (EPHA8) | remaining binding at 1 µM (HIPK4) | remaining binding at 1 µM (MAPKAPK2) | remaining binding at 1 µM (MYLK2) | remaining binding at 1 µM (SgK110)
CNc1c(-c2cnn([C@H]3CCN(C(C)=O)C[C@@H]3F)c2)cnc2[nH]cc(Cl)c12 [Compound 77, 1-((3S,4S)-4-(4-(3-chloro-4-(methylamino)-1H-pyrrolo[2,3-b]pyridin-5-yl)-1H-pyrazol-1-yl)-3-fluoropiperidin-1-yl)ethan-1-one] | 94% | 84% | 100% | 79% | 100%
O=C(c1ccc(-c2cnc3[nH]cc(Cl)c3c2NC2CCCC2)cc1)N1CCC(N2CCOCC2)CC1 [Compound 101, (4-(3-chloro-4-(cyclopentylamino)-1H-pyrrolo[2,3-b]pyridin-5-yl)phenyl)(4-morpholinopiperidin-1-yl)methanone] | 93% | 79% | 51% | 94% | 100%
CNc1c(-c2ccc(C(=O)N3CCC(N4CCOCC4)CC3)cc2)cnc2[nH]cc(Cl)c12 [Compound 96, (4-(3-chloro-4-(methylamino)-1H-pyrrolo[2,3-b]pyridin-5-yl)phenyl)(4-morpholinopiperidin-1-yl)methanone] | 96% | 64% | 100% | 51% | 100%
